Source: PubChem BioAssay (NCI)
“And” between values parts separate entries of the source, which are not always exact repeats. Identical values can stand only once.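 Cells were grown in 96-well plates and exposed to each compound for 48 hours at five concentrations; endpoints were interpolated linearly between bracketing concentrations, or set to the highest concentration if not reached. GI50 = concentration required for 50% inhibition of growth. TGI denotes the concentration required for complete inhibition of growth.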

Legend:
Test in all cases: DTP human tumour cell line panel, 48 h
RPMI-8226 leukemia = tested on: RPMI-8226 leukemia
SNB-19 CNS = tested on: SNB-19 CNS
ACHN renal = tested on: ACHN renal
SR leukemia = tested on: SR leukemia
T-47D breast = tested on: T-47D breast
HT29 colon = tested on: HT29 colon
SK-MEL-5 melanoma = tested on: SK-MEL-5 melanoma
SF-539 CNS = tested on: SF-539 CNS
M14 melanoma = tested on: M14 melanoma
EKVX NSCLC = tested on: EKVX NSCLC

SMILES | TGI (RPMI-8226 leukemia) | TGI (SNB-19 CNS) | TGI (ACHN renal) | TGI (SR leukemia) [µM] | TGI (T-47D breast) | TGI (HT29 colon) | TGI (SK-MEL-5 melanoma) | TGI (SF-539 CNS) | TGI (M14 melanoma) | TGI (EKVX NSCLC) | GI50 (RPMI-8226 leukemia) | GI50 (SNB-19 CNS) [µM] | GI50 (ACHN renal) [µM] | GI50 (SR leukemia) [µM] | GI50 (T-47D breast) [µM] | GI50 (HT29 colon) [µM] | GI50 (SK-MEL-5 melanoma) [µM] | GI50 (SF-539 CNS) [µM] | GI50 (M14 melanoma) [µM] | GI50 (EKVX NSCLC) [µM]
CCOC(=O)C1=C(c2ccccc2)N(C)c2ccccc2S1 | 66.5 µM | > 100 µM | 58.5 µM | > 100 | 73.9 µM | 46.1 µM | 30.3 µM | > 100 µM | > 100 µM | > 100 µM | – | – | – | – | – | – | – | – | – | –
COc1ccc(N2Cc3cnc(Nc4ccccc4)nc3N([C@@H]3CC[C@@H](O)C3)C2=O)cc1 | > 25 µM | > 25 µM | > 25 µM | > 16.6 | > 25 µM | > 25 µM | > 25 µM | 5.41 µM | > 25 µM | – | 5.72 µM | 11.9 | 0.984 | 3.12 | 11.9 | 3.57 | 9.25 | 0.652 | 3.7 | –
CCCC(=O)Nc1cc(C(=O)N2C[C@@H]3C[C@]34C2=CC(=O)c2[nH]cc(C)c24)n(COC)c1 | 37.3 µM and 8.36 µM | 50 µM and 14.5 µM | 24.6 µM and 26.1 µM | 2.09 | 30.2 µM and 10.6 µM | 24.6 µM and 29 µM | 5.38 µM and 3.24 µM | 31.1 µM and 5.28 µM | 50 µM and 5.96 µM | 30 µM and 25.2 µM | 2.57 µM | 3.36 | 3.62 | – | 2.38 | – | – | 2.15 | 2.05 | 5.62
CSC(CC(=O)O)C(=O)O (stereo not given) | > 100 µM | > 100 µM | > 100 µM | > 100 | > 100 µM | > 100 µM | > 100 µM | > 100 µM | > 100 µM | > 100 µM | – | – | – | – | – | – | – | – | – | –
COc1ccc2c(c1)C(=O)c1c-2n(CCCN=[N+]=[N-])c(=O)c2cc(N(C)C)ccc12 | > 100 µM | > 100 µM | > 100 µM | – | > 100 µM | > 100 µM | > 100 µM | > 100 µM | > 100 µM | > 100 µM | > 100 µM | > 100 | > 100 | – | 61.3 | > 100 | 23.8 | 17.6 | > 100 | > 100
FC(F)(F)c1cc(-c2nnc3n2N=C(N2CCCC2)CS3)cc(C(F)(F)F)c1 | > 50 µM | > 50 µM | > 50 µM | > 50 | > 50 µM | > 50 µM | > 50 µM | > 50 µM | > 50 µM | > 50 µM | > 50 µM | 30.2 | 10 | 48.8 | 19.3 | > 50 | > 50 | 34 | > 50 | > 50
COc1ccc(-c2cc(=O)c3c(C)cc(C)nc3[nH]2)cc1 | 54.6 µM | > 100 µM | > 100 µM | – | > 100 µM | > 100 µM | 33.1 µM | > 100 µM | > 100 µM | > 100 µM | – | – | – | – | – | – | 17.6 | – | – | –
O=C(O)[C@@H]1[C@H](C(=O)O)[C@H](C(=O)O)C[C@@H]1C(=O)O | > 100 µM | > 100 µM | > 100 µM | > 100 | > 100 µM | > 100 µM | > 100 µM | > 100 µM | > 100 µM | > 100 µM | – | – | – | – | – | – | – | – | – | –
COc1cc2c(c(OC)c1OC)-c1ccc(N)c(=O)cc1[C@@H](NC(C)=O)CC2 | > 100 µM | > 100 µM | > 100 µM | > 100 | > 100 µM | 0.0688 µM | – | > 100 µM | – | > 100 µM | 0.0456 µM | 0.914 | 0.152 | < 0.01 | > 100 | < 0.0159 | – | 0.0289 | 0.0208 | 0.0808
CCCCS(=O)CCC(N)C(=O)O (stereo not given) | – | > 100 µM | > 100 µM | > 100 | > 100 µM | > 100 µM | > 100 µM | > 100 µM | > 100 µM | > 100 µM | – | – | – | – | – | – | – | – | – | –
COc1ccc(-c2nc3sc(-c4ccc(Cl)cc4)cn3n2)cc1 | > 50 µM | > 50 µM | 2.02 µM | 26.1 | > 50 µM | > 50 µM | > 50 µM | 21.5 µM | > 50 µM | > 50 µM | 3.67 µM | 2.47 | 0.927 | 4.53 | 3.54 | 2.96 | 14 | 1.85 | > 50 | 4.82
CCn1c(C(=O)N(C2CC2)C2CC2)cc2c3c(ncn3C)c(Nc3cc(C)n(C)n3)nc21 | > 100 µM | > 100 µM | > 100 µM | > 100 | > 100 µM | > 100 µM | > 100 µM | > 100 µM | > 100 µM | > 100 µM | > 100 µM | > 100 | > 100 | 16.8 | > 100 | > 100 | > 100 | > 100 | > 100 | > 100
O=C(Nc1ccc(F)cc1)c1ccc(NC2=C(Cl)C(=O)N(Cc3ccccc3)C2=O)cc1 | 12.3 µM | 41.3 µM | 27.8 µM | 2.54 | > 100 µM | > 100 µM | 63.7 µM | 26.7 µM | 30.3 µM | 87 µM | 3.43 µM | 10.8 | 14.3 | 0.848 | 5.69 | 13.1 | 18.5 | 11.2 | 13.4 | 27
COc1ccccc1/C=C/[N+](=O)[O-] | 3.78 µM | 19 µM | 3.84 µM | 5.02 | 16.9 µM | 3.85 µM | 4.03 µM | 4.32 µM | 3.94 µM | 58.3 µM | 1.05 µM | 4.85 | 2.01 | 0.886 | 3.17 | 2.01 | 2 | 2.16 | 1.89 | 15.3
CCOC(=O)C1=C(C(=O)c2ccc(C)cc2)C(c2cccc([N+](=O)[O-])c2)C(C(=O)c2ccc(C)cc2)=C(C(=O)OCC)N1 | – | 25.9 µM | 28.3 µM | 35.3 | 8.84 µM | 28.7 µM | 33.1 µM | 26.7 µM | 32.9 µM | 47.1 µM | – | – | – | – | – | – | – | – | – | –
CCc1n(Cc2ccc3ccccc3n2)cc[n+]1Cc1ccc2ccccc2n1 | 10.1 µM | 10.7 µM | > 100 µM | 12.5 | 0.794 µM | 12 µM | 1.02 µM | 15.8 µM | 21.7 µM | 41.5 µM | 0.0172 µM | 0.0687 | 28 | 0.0753 | 0.046 | 0.263 | 0.0653 | 0.681 | 2.93 | 0.343
CC(C)CNCC(O)COc1ccc(C(C)(C)c2ccc(OCC(O)CNCC(C)C)cc2)cc1 (stereo not given) | 4.42 µM | 10.9 µM | 3.41 µM | 4.39 | 3.63 µM | 3.26 µM | 3.05 µM | 3.23 µM | 3.43 µM | 17.8 µM | 1.88 µM | 3.15 | 1.82 | 2.02 | 1.63 | 1.62 | 1.68 | 1.71 | 1.76 | 3.78
CCCc1c(CC)c(=N)c2ccccc2n1C | > 100 µM | > 100 µM | > 100 µM | > 100 | > 100 µM | > 100 µM | > 100 µM | > 100 µM | – | – | 36.3 µM | 34.5 | > 100 | > 100 | 33 | > 100 | 24.9 | > 100 | – | –
CC[C@@]1(O)C[C@H](OC2CC(N(C)C)C(OC3CC(O)C(OC4CCC(=O)C(C)O4)C(C)O3)C(C)O2)c2c(cc3c(c2O)C(=O)c2c(O)cccc2C3=O)[C@H]1C(=O)OC (stereo not given in full) | 0.261 µM and 0.743 µM | 1.98 µM and 2.21 µM | 0.579 µM | – | 0.472 µM and 2.63 µM | 0.903 µM and 0.318 µM | 0.0592 µM and 0.164 µM | 0.0917 µM and 0.216 µM | 0.149 µM | 0.415 µM and 0.452 µM | 0.00904 µM and 0.00447 µM | – | – | – | – | – | – | – | – | –
O=Nc1c(-c2c(O)[nH]c3ccc([N+](=O)[O-])cc23)[nH]c2ccc(O)cc12 | 14.7 µM | > 100 µM | > 100 µM | 12.6 | > 100 µM | > 100 µM | 0.414 µM | 0.827 µM | > 87 µM | – | 0.665 µM | 0.465 | 0.261 | 0.258 | 0.506 | 12.4 | 0.189 | 0.258 | 0.496 | –
Cc1c(S(C)(=O)=O)c(-c2cc(F)cc(N3CCN(c4ccc(NS(=O)(=O)c5ccc(N[C@H](CCN6CCC(C(=O)OCCCP(=O)(O)O)CC6)CSc6ccccc6)c(S(=O)(=O)C(F)(F)F)c5)cc4)CC3)c2)c(-c2ccc(Cl)cc2)n1C(C)C | > 100 µM | > 100 µM | > 100 µM | – | > 100 µM | > 100 µM | > 100 µM | > 100 µM | > 100 µM | > 100 µM | 1.29 µM | 68.1 | > 100 | – | > 100 | > 100 | > 100 | > 100 | > 100 | > 100
